# Biological target: USP1 (construct USP1 (I-785, GG670, 671AA)/UAF1 (I-677)-Flag) (Homo sapiens (Human), UniProt O94782, G670A/G671A)
# Assay: Ubiquitin-Rhodamine 110 assay for USP1 activity
# Format: biochemical
# Conditions: USP1/UAF1 25 pM, Ub-Rh110 25 nM, 30 min preincubation
# In short: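 Ub-Rh110 (25 nM, ≪Km) cleavage read at ex 485/em 535 in Tris pH 8.0, CaCl2, GSH, Prionex, Triton X-100. The screen used 10 µM compound, 100 pM USP1/UAF1 and 45 min at RT.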
# Sequence of USP1 (construct USP1 (I-785, GG670, 671AA)/UAF1 (I-677)-Flag) (O94782 whole entry G670A/G671A): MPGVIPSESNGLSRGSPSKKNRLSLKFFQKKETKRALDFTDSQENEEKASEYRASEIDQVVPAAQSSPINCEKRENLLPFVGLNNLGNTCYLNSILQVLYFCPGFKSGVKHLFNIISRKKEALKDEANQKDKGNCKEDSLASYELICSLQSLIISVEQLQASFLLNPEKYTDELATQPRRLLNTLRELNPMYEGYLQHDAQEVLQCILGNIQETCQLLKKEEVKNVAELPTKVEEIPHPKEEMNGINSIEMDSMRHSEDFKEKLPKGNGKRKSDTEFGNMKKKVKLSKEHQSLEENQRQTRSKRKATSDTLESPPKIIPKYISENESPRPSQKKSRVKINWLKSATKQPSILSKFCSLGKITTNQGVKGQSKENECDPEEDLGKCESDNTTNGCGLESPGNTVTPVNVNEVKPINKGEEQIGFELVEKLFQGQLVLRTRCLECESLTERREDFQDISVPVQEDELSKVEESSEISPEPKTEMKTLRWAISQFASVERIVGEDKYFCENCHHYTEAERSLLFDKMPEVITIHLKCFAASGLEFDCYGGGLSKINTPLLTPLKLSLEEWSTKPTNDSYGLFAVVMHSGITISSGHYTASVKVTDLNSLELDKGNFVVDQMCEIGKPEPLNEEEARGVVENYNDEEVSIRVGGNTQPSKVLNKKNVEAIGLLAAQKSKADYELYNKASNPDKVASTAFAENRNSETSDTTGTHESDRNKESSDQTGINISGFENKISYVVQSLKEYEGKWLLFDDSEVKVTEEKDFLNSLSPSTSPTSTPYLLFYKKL
# Sequence of USP1 (construct USP1 (I-785, GG670, 671AA)/UAF1 (I-677)-Flag) (Q8TAF3 whole entry partner): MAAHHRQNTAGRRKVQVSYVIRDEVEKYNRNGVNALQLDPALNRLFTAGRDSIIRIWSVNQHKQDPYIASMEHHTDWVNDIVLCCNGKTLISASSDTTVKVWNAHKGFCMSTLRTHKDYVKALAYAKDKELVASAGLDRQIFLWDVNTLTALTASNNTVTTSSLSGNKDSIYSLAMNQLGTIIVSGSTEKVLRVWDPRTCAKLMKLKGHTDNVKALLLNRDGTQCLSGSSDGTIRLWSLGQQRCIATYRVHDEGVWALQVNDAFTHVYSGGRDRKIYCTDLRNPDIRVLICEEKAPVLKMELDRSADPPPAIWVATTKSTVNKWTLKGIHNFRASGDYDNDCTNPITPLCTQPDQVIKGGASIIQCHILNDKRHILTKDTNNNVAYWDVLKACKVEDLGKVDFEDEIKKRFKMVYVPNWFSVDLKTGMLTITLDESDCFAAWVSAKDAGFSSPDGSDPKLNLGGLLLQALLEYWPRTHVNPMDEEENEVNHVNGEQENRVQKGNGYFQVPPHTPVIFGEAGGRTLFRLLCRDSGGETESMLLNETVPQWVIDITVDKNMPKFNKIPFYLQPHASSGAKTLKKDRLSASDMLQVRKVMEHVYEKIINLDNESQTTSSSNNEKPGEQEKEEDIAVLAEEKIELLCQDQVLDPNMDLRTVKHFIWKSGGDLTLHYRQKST
row,Compound,IC50
1,"CC(C)c1ncccc1-c1ncc2[nH]c(=O)n([C@@H](C)c3ccc(-c4nc(C(F)(F)F)cn4C)cc3)c2n1 [Compound I-80, (S)-2-(2-isopropylpyridin-3-yl)-9-(1-(4-(1-methyl-4-(trifluoromethyl)-1H-imidazol-2-yl)phenyl)ethyl)-7,9-dihydro-8H-purin-8-one]",< 50 nM
2,"CC(C)c1ncccc1-c1ncc2[nH]c(=O)n(Cc3cc(F)c(-c4nc(C(F)(F)F)cn4C)c(F)c3)c2n1 [Compound I-82, 9-(3,5-difluoro-4-(1-methyl-4-(trifluoromethyl)-1H-imidazol-2-yl)benzyl)-2-(2-isopropylpyridin-3-yl)-7,9-dihydro-8H-purin-8-one]",< 50 nM
3,"CC(C)c1ncccc1-c1ncc2[nH]c(=O)n(Cc3ccc(-c4nc(C(F)(F)F)cn4C)c(F)c3)c2n1 [Compound I-83, 9-(3-fluoro-4-(1-methyl-4-(trifluoromethyl)-1H-imidazol-2-yl)benzyl)-2-(2-isopropylpyridin-3-yl)-7,9-dihydro-8H-purin-8-one]",< 50 nM
4,"CC(C)c1ncccc1-c1ncc2[nH]c(=O)n(Cc3ccc(-c4nc(C(F)(F)F)cn4C)cc3F)c2n1 [Compound I-84, 9-(2-fluoro-4-(1-methyl-4-(trifluoromethyl)-1H-imidazol-2-yl)benzyl)-2-(2-isopropylpyridin-3-yl)-7,9-dihydro-8H-purin-8-one]",< 50 nM
5,"CC(C)c1ncccc1-c1ncc2[nH]c(=O)n(Cc3c(F)cc(-c4nc(C(F)(F)F)cn4C)cc3F)c2n1 [Compound I-85, 9-(2,6-difluoro-4-(1-methyl-4-(trifluoromethyl)-1H-imidazol-2-yl)benzyl)-2-(2-isopropylpyridin-3-yl)-7,9-dihydro-8H-purin-8-one]",50 to 200 nM
6,"Cn1cc(C(F)(F)F)nc1-c1ccc(Cn2c(=O)[nH]c3cnc(-c4ccccc4[S+](C)[O-])nc32)cc1 (stereo not shown) [Compound I-86, 9-(4-(1-methyl-4-(trifluoromethyl)-1H-imidazol-2-yl)benzyl)-2-(2-(methylsulfinyl)phenyl)-7,9-dihydro-8H-purin-8-one]",200 to 2000 nM
7,"CC(C)c1ncccc1-c1ncc2[nH]c(=O)n(Cc3ccc(-c4nc(C(F)F)cn4C)cc3)c2n1 [Compound I-87, 9-(4-(4-(difluoromethyl)-1-methyl-1H-imidazol-2-yl)benzyl)-2-(2-isopropylpyridin-3-yl)-7,9-dihydro-8H-purin-8-one]",50 to 200 nM
8,"O=c1[nH]c2cnc(-c3cccnc3OC(F)F)nc2n1Cc1ccc(-n2ccc(F)n2)cc1 [Compound I-88, 2-(2-(difluoromethoxy)pyridin-3-yl)-9-(4-(3-fluoro-1H-pyrazol-1-yl)benzyl)-7,9-dihydro-8H-purin-8-one]",200 to 2000 nM
9,"O=c1[nH]c2cnc(-c3ccccc3OC(F)F)nc2n1Cc1ccc(-n2ccc(F)n2)cc1 [Compound I-89, 2-(2-(difluoromethoxy)phenyl)-9-(4-(3-fluoro-1H-pyrazol-1-yl)benzyl)-7,9-dihydro-8H-purin-8-one]",200 to 2000 nM
10,"CN(C)c1ccccc1-c1ncc2[nH]c(=O)n(Cc3ccc(-c4nc(C(F)(F)F)cn4C)cc3)c2n1 [Compound I-90, 2-(2-(dimethylamino)phenyl)-9-(4-(1-methyl-4-(trifluoromethyl)-1H-imidazol-2-yl)benzyl)-7,9-dihydro-8H-purin-8-one]",< 50 nM
11,"Cc1cccc(-c2ncc3[nH]c(=O)n(Cc4ccc(-n5cccn5)cc4)c3n2)c1C(C)C [Compound I-91, 9-(4-(1H-pyrazol-1-yl)benzyl)-2-(2-isopropyl-3-methylphenyl)-7,9-dihydro-8H-purin-8-one]",< 50 nM
12,"COc1cccc(-c2ncc3[nH]c(=O)n(Cc4ccc(-n5cccn5)cc4)c3n2)c1C(C)C [Compound I-92, 9-(4-(1H-pyrazol-1-yl)benzyl)-2-(2-isopropyl-3-methoxyphenyl)-7,9-dihydro-8H-purin-8-one]",200 to 2000 nM
13,"CC(C)c1c(Cl)cccc1-c1ncc2[nH]c(=O)n(Cc3ccc(-n4cccn4)cc3)c2n1 [Compound I-93, 9-(4-(1H-pyrazol-1-yl)benzyl)-2-(3-chloro-2-isopropylphenyl)-7,9-dihydro-8H-purin-8-one]",50 to 200 nM
14,"O=c1[nH]c2cnc(-c3ccccc3C3CC3)nc2n1Cc1ccc(-n2cccn2)cc1 [Compound I-94, 9-(4-(1H-pyrazol-1-yl)benzyl)-2-(2-cyclopropylphenyl)-7,9-dihydro-8H-purin-8-one]",< 50 nM
15,"O=c1[nH]c2cnc(-c3cc(Cl)ccc3C3CC3)nc2n1Cc1ccc(-n2cccn2)cc1 [Compound I-95, 9-(4-(1H-pyrazol-1-yl)benzyl)-2-(5-chloro-2-cyclopropylphenyl)-7,9-dihydro-8H-purin-8-one]",< 50 nM
16,"CC(C)c1cccc(F)c1-c1ncc2[nH]c(=O)n(Cc3ccc(-n4cccn4)cc3)c2n1 [Compound I-96, 9-(4-(1H-pyrazol-1-yl)benzyl)-2-(2-fluoro-6-isopropylphenyl)-7,9-dihydro-8H-purin-8-one]",< 50 nM

row,Compound,IC50
1,"O=c1[nH]c2cnc(-c3cc(C(F)(F)F)ccc3C3CC3)nc2n1Cc1ccc(-n2cccn2)cc1 [Compound I-97, 9-(4-(1H-pyrazol-1-yl)benzyl)-2-(2-cyclopropyl-5-(trifluoromethyl)phenyl)-7,9-dihydro-8H-purin-8-one]",200 to 2000 nM
2,"CCOC(=O)c1cc(C)nn1-c1ccc(Cn2c(=O)[nH]c3cnc(-c4ccccc4C4CC4)nc32)cc1 [Compound I-99, ethyl 1-(4-((2-(2-cyclopropylphenyl)-8-oxo-7,8-dihydro-9H-purin-9-yl)methyl)phenyl)-3-methyl-1H-pyrazole-5-carboxylate]",< 50 nM
3,"Cn1cc(C(F)(F)F)nc1-c1ccc(Cn2c(=O)n(C3CC3)c3cnc(-c4ccccc4C4CC4)nc32)cc1 [Compound I-100, 7-cyclopropyl-2-(2-cyclopropylphenyl)-9-(4-(1-methyl-4-(trifluoromethyl)-1H-imidazol-2-yl)benzyl)-7,9-dihydro-8H-purin-8-one]",< 50 nM
4,"Cn1cc(C(F)(F)F)nc1-c1ccc(Cn2c(=O)n(C3CC3)c3cnc(-c4cccnc4C4CC4)nc32)cc1 [Compound I-101, 7-cyclopropyl-2-(2-cyclopropylpyridin-3-yl)-9-(4-(1-methyl-4-(trifluoromethyl)-1H-imidazol-2-yl)benzyl)-7,9-dihydro-8H-purin-8-one]",< 50 nM
5,"CC(C)c1ccccc1-c1ncc2[nH]c(=O)n(Cc3ccc(-n4ncc5c4CNC5)cc3)c2n1 [Compound I-102, 9-(4-(5,6-dihydropyrrolo[3,4-c]pyrazol-1(4H)-yl)benzyl)-2-(2-isopropylphenyl)-7,9-dihydro-8H-purin-8-one]",200 to 2000 nM
6,"CC(C)c1c(F)cccc1-c1ncc2[nH]c(=O)n(Cc3ccc(-n4ncc5c4CNC5)cc3)c2n1 [Compound I-103, 9-(4-(5,6-dihydropyrrolo[3,4-c]pyrazol-1(4H)-yl)benzyl)-2-(3-fluoro-2-isopropylphenyl)-7,9-dihydro-8H-purin-8-one]",50 to 200 nM
7,"CC(C)c1c(F)cccc1-c1ncc2[nH]c(=O)n(Cc3ccc(-n4cc5c(n4)CNC5)cc3)c2n1 [Compound I-104, 9-(4-(5,6-dihydropyrrolo[3,4-c]pyrazol-2(4H)-yl)benzyl)-2-(3-fluoro-2-isopropylphenyl)-7,9-dihydro-8H-purin-8-one]",200 to 2000 nM
8,"CC(C)c1ncccc1-c1ncc2c(n1)n(Cc1ccc(-c3nc(C(F)(F)F)cn3C)cc1)c(=O)n2C [Compound I-105, 2-(2-Isopropylpyridin-3-yl)-7-methyl-9-(4-(1-methyl-4-(trifluoromethyl)-1H-imidazol-2-yl)benzyl)-7,9-dihydro-8H-purin-8-one]",< 50 nM
9,"CC(C)c1ccccc1-c1ncc2c(n1)n(Cc1ccc(-c3nc(C(F)(F)F)cn3CCO)cc1)c(=O)n2C [Compound I-106, 9-(4-(1-(2-Hydroxyethyl)-4-(trifluoromethyl)-1H-imidazol-2-yl)benzyl)-2-(2-isopropylphenyl)-7-methyl-7,9-dihydro-8H-purin-8-one]",< 50 nM
10,"CC(C)c1ccccc1-c1ncc2c(n1)n(Cc1ccc(-n3cccn3)cc1)c(=O)n2CCN(C)C [Compound I-107, 9-(4-(1H-pyrazol-1-yl)benzyl)-7-(2-(dimethylamino)ethyl)-2-(2-isopropylphenyl)-7,9-dihydro-8H-purin-8-one]",200 to 2000 nM
11,"CC(C)c1ncccc1-c1ncc2c(n1)n(C1(c3ccc(-c4nc(C(F)(F)F)cn4C)cc3)CC1)c(=O)n2C [Compound I-108, 2-(2-isopropylpyridin-3-yl)-7-methyl-9-(1-(4-(1-methyl-4-(trifluoromethyl)-1H-imidazol-2-yl)phenyl)cyclopropyl)-7,9-dihydro-8H-purin-8-one]",< 50 nM
12,"Cc1cc(N2CCC2)nn1-c1ccc(Cn2c(=O)n(C)c3cnc(-c4cccnc4C(C)C)nc32)cc1 [Compound I-109, 9-(4-(3-(azetidin-1-yl)-5-methyl-1H-pyrazol-1-yl)benzyl)-2-(2-isopropylpyridin-3-yl)-7-methyl-7,9-dihydro-8H-purin-8-one]",50 to 200 nM
13,"CC(C)c1ccccc1-c1ncc2c(n1)n(Cc1ccc(-c3nc(C(F)(F)F)cn3C3COC3)cc1)c(=O)n2C [Compound I-110, 2-(2-isopropylphenyl)-7-methyl-9-(4-(1-(oxetan-3-yl)-4-(trifluoromethyl)-1H-imidazol-2-yl)benzyl)-7,9-dihydro-8H-purin-8-one]",< 50 nM
14,"Cc1cc(C)n([C@H]2CC[C@@H](Cn3c(=O)n(C)c4cnc(-c5ccccc5C(C)C)nc43)CC2)n1 [Compound I-111, 9-(((1s,4s)-4-(3,5-dimethyl-1H-pyrazol-1-yl)cyclohexyl)methyl)-2-(2-isopropylphenyl)-7-methyl-7,9-dihydro-8H-purin-8-one]",50 to 200 nM
15,"Cc1cc(C)n([C@H]2CC[C@H](Cn3c(=O)n(C)c4cnc(-c5ccccc5C(C)C)nc43)CC2)n1 [Compound I-112, 9-(((1r,4r)-4-(3,5-dimethyl-1H-pyrazol-1-yl)cyclohexyl)methyl)-2-(2-isopropylphenyl)-7-methyl-7,9-dihydro-8H-purin-8-one]",> 2000 nM

# From patent US10189841B2, “Purinones as ubiquitin-specific protease 1 inhibitors” (Forma Therapeutics, Inc., priority 2015, dated 2019)
